What all share (assay): biochemical
What all share (set-up): DiscoveRx KINOMEscan active site-directed competition binding; percent of control kinase bound to immobilised ligand

One experiment concerns the target T1, ANKK1 (Homo sapiens, UniProt Q8NFD2).
T1 sequence (Q8NFD2 1-765): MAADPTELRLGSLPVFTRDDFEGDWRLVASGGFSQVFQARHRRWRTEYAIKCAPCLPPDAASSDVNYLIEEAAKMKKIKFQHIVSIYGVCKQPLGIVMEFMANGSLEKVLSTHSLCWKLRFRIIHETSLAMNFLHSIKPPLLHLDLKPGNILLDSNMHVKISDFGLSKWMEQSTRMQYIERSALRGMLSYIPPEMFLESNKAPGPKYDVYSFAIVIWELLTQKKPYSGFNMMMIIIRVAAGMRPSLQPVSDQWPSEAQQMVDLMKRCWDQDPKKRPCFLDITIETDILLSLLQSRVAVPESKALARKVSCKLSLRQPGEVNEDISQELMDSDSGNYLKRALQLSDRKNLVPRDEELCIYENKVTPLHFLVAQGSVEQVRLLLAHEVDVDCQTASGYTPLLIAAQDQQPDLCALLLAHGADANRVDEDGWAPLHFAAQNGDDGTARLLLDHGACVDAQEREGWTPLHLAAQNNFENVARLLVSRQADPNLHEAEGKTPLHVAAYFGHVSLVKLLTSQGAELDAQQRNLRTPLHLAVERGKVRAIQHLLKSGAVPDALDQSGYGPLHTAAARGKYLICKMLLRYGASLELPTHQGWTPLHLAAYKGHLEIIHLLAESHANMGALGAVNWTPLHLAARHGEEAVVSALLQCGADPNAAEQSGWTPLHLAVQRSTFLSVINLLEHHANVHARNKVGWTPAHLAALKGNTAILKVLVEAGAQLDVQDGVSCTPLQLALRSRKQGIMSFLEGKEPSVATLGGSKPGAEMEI

The next experiment has as its target T2, PRKD3 (Homo sapiens, UniProt O94806).
T2 sequence (O94806 1-890): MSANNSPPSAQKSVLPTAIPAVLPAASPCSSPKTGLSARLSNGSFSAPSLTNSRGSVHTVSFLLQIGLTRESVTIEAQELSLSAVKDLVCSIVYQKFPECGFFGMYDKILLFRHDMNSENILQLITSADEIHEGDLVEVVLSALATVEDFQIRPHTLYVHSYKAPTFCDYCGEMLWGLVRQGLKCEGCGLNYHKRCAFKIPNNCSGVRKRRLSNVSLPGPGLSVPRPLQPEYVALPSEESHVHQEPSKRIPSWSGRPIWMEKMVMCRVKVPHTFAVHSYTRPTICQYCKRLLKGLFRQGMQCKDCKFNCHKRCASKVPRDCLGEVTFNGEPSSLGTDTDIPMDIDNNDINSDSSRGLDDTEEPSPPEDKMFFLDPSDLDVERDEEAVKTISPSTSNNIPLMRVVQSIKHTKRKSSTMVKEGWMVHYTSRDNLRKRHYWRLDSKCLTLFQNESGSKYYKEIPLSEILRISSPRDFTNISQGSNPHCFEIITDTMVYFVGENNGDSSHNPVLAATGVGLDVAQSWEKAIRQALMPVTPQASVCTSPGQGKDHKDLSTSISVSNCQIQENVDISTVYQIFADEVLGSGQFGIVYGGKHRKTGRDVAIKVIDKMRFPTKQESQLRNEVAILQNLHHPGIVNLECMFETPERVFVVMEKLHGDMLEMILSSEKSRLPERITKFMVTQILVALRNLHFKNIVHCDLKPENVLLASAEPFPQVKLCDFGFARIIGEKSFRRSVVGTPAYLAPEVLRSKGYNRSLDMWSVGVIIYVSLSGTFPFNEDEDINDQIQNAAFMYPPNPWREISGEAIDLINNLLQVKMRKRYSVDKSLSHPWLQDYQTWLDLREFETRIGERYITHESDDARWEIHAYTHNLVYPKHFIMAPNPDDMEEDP

For another experiment, the target named is CAMKK2 (Homo sapiens, UniProt Q96RR4).
Sequence of CAMKK2 (Q96RR4 whole entry): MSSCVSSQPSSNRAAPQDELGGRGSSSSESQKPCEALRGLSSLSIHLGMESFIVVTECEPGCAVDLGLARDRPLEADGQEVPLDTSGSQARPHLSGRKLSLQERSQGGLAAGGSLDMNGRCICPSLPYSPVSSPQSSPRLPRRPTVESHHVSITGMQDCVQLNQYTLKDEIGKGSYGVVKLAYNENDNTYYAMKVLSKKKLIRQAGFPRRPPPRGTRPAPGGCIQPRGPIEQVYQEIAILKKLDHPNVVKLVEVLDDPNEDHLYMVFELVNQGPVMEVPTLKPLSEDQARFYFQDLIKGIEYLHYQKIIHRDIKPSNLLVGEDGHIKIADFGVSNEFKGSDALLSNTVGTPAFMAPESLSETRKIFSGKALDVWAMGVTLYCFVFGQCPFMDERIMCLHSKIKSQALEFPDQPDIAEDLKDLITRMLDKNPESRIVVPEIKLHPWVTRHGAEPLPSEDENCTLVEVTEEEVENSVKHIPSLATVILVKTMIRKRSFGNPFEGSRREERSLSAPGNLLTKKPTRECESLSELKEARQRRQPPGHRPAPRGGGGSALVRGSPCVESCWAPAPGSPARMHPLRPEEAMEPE
For the next experiment, the target named is T3, ERK8 (Homo sapiens, UniProt Q8TD08).
T3 construct: gene MAPK15
T3 sequence (Q8TD08 1-544): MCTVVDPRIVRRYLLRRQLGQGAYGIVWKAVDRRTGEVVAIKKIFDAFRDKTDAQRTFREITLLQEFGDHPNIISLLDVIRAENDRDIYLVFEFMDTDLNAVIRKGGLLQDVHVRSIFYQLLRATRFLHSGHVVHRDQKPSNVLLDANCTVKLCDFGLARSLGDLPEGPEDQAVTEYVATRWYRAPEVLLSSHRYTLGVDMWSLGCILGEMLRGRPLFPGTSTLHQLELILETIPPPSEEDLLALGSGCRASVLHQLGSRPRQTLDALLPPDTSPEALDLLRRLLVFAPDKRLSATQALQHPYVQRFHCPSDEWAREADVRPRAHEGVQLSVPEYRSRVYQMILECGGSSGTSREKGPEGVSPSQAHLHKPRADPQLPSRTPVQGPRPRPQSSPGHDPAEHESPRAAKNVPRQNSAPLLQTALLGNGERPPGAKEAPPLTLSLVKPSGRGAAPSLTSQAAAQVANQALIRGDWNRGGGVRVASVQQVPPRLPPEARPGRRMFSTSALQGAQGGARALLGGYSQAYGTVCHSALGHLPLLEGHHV

For the next experiment, the target named is MYLK2 (Homo sapiens, UniProt Q9H1R3).
Sequence of MYLK2 (Q9H1R3 whole entry): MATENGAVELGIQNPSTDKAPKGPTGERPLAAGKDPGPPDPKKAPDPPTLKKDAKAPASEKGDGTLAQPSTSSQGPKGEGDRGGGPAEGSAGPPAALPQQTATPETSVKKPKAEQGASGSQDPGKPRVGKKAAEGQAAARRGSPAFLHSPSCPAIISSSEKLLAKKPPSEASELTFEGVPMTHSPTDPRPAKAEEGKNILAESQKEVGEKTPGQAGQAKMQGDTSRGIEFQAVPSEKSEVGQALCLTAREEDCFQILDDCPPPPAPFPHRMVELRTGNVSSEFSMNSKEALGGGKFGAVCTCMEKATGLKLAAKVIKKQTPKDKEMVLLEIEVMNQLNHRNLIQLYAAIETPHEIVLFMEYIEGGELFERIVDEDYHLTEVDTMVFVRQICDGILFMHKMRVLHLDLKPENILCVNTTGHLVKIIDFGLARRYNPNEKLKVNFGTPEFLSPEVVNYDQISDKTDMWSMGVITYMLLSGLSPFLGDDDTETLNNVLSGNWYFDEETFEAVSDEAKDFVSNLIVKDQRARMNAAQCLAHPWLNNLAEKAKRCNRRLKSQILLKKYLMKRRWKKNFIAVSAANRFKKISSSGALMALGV
The mark [1] stands for this setting: read-out: Niraparib (MK-4827) / %Ctrl @ 10000nM.
[2] abbreviates: read-out: Olaparib / %Ctrl @ 10000nM.
The mark [3] stands for this setting: read-out: Rucaparib / %Ctrl @ 10000nM, binding competition, % of control.
[4] abbreviates: read-out: Talazoparib (BMN 673) / %Ctrl @ 10000nM.

Read-outs that look alike come from different tables or passages of the source.

Regarding `NC(=O)c1cccc2cn(-c3ccc([C@@H]4CCCNC4)cc3)nc12` [Niraparib], the percent of control binding at 10 µM on ANKK1 (setting [1]) came out at 100%; on PRKD3 (setting [1]), 76%; at CAMKK2 (setting [1]) it was 81%; on ERK8 (setting [1]), 61%; on MYLK2 (setting [1]), 92%.
Turning to `O=C(c1cc(Cc2n[nH]c(=O)c3ccccc23)ccc1F)N1CCN(C(=O)C2CC2)CC1` [Olaparib], the percent of control binding at 10 µM at ANKK1 (setting [2]) came out at 90%; on PRKD3 (setting [2]) it was 83%; at CAMKK2 (setting [2]), 99%; on ERK8 (setting [2]), 97%; on MYLK2 (setting [2]), 100%.
As for `CNCc1ccc(-c2[nH]c3cc(F)cc4c3c2CCNC4=O)cc1` [Rucaparib], the percent of control binding at 10 µM at ANKK1 (setting [3]) is 71%; at PRKD3 (setting [3]), 78%; at CAMKK2 (setting [3]), 70%; on ERK8 (setting [3]) it was 86%; at MYLK2 (setting [3]) it was 74%.
With `Cn1ncnc1[C@H]1c2n[nH]c(=O)c3cc(F)cc(c23)N[C@@H]1c1ccc(F)cc1` [Talazoparib], the percent of control binding at 10 µM on ANKK1 (setting [4]) stood at 100%; on PRKD3 (setting [4]), 89%; on CAMKK2 (setting [4]), 97%; at ERK8 (setting [4]), 88%; at MYLK2 (setting [4]), 100%.

These data come from paper PMC7026418, “The kinase polypharmacology landscape of clinical PARP inhibitors” (Scientific Reports, 2020).
